Measurements taken from ChEMBL document CHEMBL1153255, “Studies on irreversible inhibition of serine proteases by -sulfonyloxyketone derivatives” (Bioorg Med Chem Lett, 1996).

What was measured:
[1] = molecular target: Chymotrypsinogen A (Bos taurus) (UniProt P00766); test: Compound was evaluated for inhibitory activity against alpha- chymotrypsin
[2] = molecular target: Chymotrypsinogen A (Bos taurus) (UniProt P00766); test: Compound was evaluated for its inhibitory activity against alpha- chymotrypsin
[3] = molecular target: T1, Chymotrypsin-like elastase family member 2A (Sus scrofa) (UniProt P08419); test: Compound was evaluated for inhibitory activity against porcine pancreatic elastase; No inactivation
T1 sequence (whole entry): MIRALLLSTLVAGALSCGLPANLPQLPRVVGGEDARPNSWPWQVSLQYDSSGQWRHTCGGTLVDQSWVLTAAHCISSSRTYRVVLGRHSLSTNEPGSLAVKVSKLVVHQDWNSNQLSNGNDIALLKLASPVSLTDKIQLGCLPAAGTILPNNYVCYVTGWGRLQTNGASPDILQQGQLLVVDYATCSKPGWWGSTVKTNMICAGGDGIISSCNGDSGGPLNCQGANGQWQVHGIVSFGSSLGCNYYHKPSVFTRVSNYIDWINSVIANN

[4] = molecular target: T1, Chymotrypsin-like elastase family member 2A (Sus scrofa); test: Compound was evaluated for inhibitory activity against porcine pancreatic elastase

CC(=O)C(Cc1ccccc1)OS(C)(=O)=O (configuration not stated)
I [1]: 2.31 mM | K obs / 1 [1]: 0.33 M⁻¹ s⁻¹

Cc1ccc(S(=O)(=O)N[C@@H](Cc2ccccc2)C(=O)CCl)cc1
K obs / 1 [2]: 7.7 M⁻¹ s⁻¹ | I [1]: 0.057 mM

CC(=O)C(Cc1ccccc1)OS(=O)(=O)c1ccc(C)cc1 (configuration not stated)
I [1]: 0.096 mM | K obs / 1 [1]: 10.5 M⁻¹ s⁻¹ | K obs / 1 [3]: No inhibition | I [4]: 0.103 mM

CC(=O)C(C)OS(=O)(=O)c1ccccc1 (configuration not stated)
I [1]: 3.28 mM | K obs / 1 [1]: 0.01 M⁻¹ s⁻¹ | I [4]: 2.01 mM | K obs / 1 [4]: 0.19 M⁻¹ s⁻¹
